In PubChem BioAssay (NCI):
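Following 48 hours of exposure in 96-well plates, responses at five concentrations were used to interpolate endpoints linearly. TGI: total growth inhibition.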

Experiments:
Test in all cases: DTP human tumour cell line panel, 48 h
[1] = test system: TK-10 renal
[2] = test system: HT29 colon
[3] = test system: RXF 393 renal
[4] = test system: COLO 205 colon
[5] = test system: A498 renal
[6] = test system: U251 CNS
[7] = test system: HOP-92 NSCLC
[8] = test system: SK-MEL-28 melanoma
[9] = test system: EKVX NSCLC
[10] = test system: SNB-19 CNS
[11] = test system: MALME-3M melanoma
[12] = test system: SK-MEL-2 melanoma
[13] = test system: NCI-H23 lung
[14] = test system: SK-MEL-5 melanoma
[15] = test system: MCF7 breast
[16] = test system: NCI/ADR-RES ovarian
[17] = test system: OVCAR-4 ovarian
[18] = test system: CCRF-CEM leukemia
[19] = test system: UACC-62 melanoma
[20] = test system: UACC-257 melanoma
[21] = test system: PC-3 prostate
[22] = test system: NCI-H226 lung
[23] = test system: CAKI-1 renal
[24] = test system: K-562 leukemia
[25] = test system: BT-549 breast
[26] = test system: ACHN renal
[27] = test system: MDA-MB-435
[28] = test system: M14 melanoma
[29] = test system: OVCAR-5 ovarian
[30] = test system: HOP-62 NSCLC
[31] = test system: 786-0 renal
[32] = test system: SR leukemia
[33] = test system: UO-31 renal
[34] = test system: RPMI-8226 leukemia
[35] = test system: SF-268 CNS
[36] = test system: HL-60(TB) leukemia
[37] = test system: MOLT-4 leukemia
[38] = test system: HCT-15 colon
[39] = test system: HCT-116 colon
[40] = test system: MDA-MB-231 breast
[41] = test system: IGROV1 ovarian
[42] = test system: HCC-2998 colon
[43] = test system: A549 NSCLC
[44] = test system: SF-539 CNS
[45] = test system: SNB-75 CNS
[46] = test system: SW-620 colon
[47] = test system: KM12 colon
[48] = test system: NCI-H522 lung
[49] = test system: OVCAR-8 ovarian
[50] = test system: MDA-N
[51] = test system: HS 578T breast
[52] = test system: DU-145 prostate
[53] = test system: SF-295 CNS
[54] = test system: T-47D breast
[55] = test system: SK-OV-3 ovarian
[56] = test system: OVCAR-3 ovarian
[57] = test system: NCI-H460 lung
[58] = test system: SN12C renal

Measured: TGI

O=C(/C=C/c1cc(F)ccc1F)OCCc1ccccc1
47.4 µM: [17]
79.9 µM: [36]
not listed: [52] | [53] | [54] | [55] | [56] | [57] | [58]
> 100 µM: all other assays above

CC1C2CC(CC2O)C1(C)C (configuration not stated)
not listed: [9] | [12] | [15] | [16] | [34] | [38] | [42]
> 100 µM: all other assays above
